Legend:
ICP4 gene of HSV = experiment: Inhibition of HSV ICP4 gene transcription; type: cell-based, HSV-1; settings: previously determined
Source text: (§1) The […] (IE) ICP4 gene of HSV is essential for HSV replication.

[1] = system: Sp1 regulated transcription of HPV E6/E7; experiment: Sp1 regulated HPV E6/E7 transcription, luciferase assays and C3 tumor lines; type: cell-based; settings: luciferase assays and HPV induced mouse cervical C3 tumor lines
Source text: as §1

HSV-1 [2] = experiment: Mutation-insensitivity: IC50 against HSV-1 over ten virus passages; type: cell-based
Source text: In contrast, host factors, unlike viral factors, are under no selective pressure to mutate and are in general structurally invariable. […] Table 1 compares the IC50 of M4N and acyclovir for ten passages.

HPV 16 = experiment: HPV inhibition in C33A cells; type: cell-based; settings: C-33-A, read-out: Inhibitory Concentration (IC50 or EC50)
[3] = Single dose s.c. rabbit irritation study
Method: 4 male and 2 female New Zealand White rabbits received single s.c. injections of saline (1 mL), DMSO (1 mL), 20 mg (0.1 mL) M4N, and 200 mg (1 mL) M4N at each of four sites. Mortality, clinical observations, body weights, dermal irritation, gross necropsy findings, and microscopic pathology were evaluated. […] All injection sites were preserved in 10% neutral-buffered formalin (NBF).

[4] = 14-day toxicity study in rats, toxicokinetics; type: in vivo; settings: for Tmax / Cmax: rat, plasma; for Tmax: 500 mg/kg; for Cmax: Group 10 (500 mg/kg), Day 14
Method: The toxicokinetics study consisted of four dose-groups (0, 50, 100, 500 mg/kg) with 6 animals/sex/group. Approximately 0.7 mL of blood was collected from the jugular vein from 3 rats/sex/group rotated in ascending order for each dose group at 0.5, 1, 4, 8, and 12 hours post-dose on Days 1, 7, and 14. Plasma was isolated and analyzed for M4N by HPLC assay.

[5] = 14-day toxicity study in dogs, toxicokinetics; type: in vivo, beagle dogs; settings: for highest mean plasma concentration: Day 14; for Tmax: read-out: median Tmax
Method: Three beagle dogs/sex/group received doses of 0 (0.50 mL/kg DMSO), 10, 50, and 100 mg/kg (0.05, 0.25, 0.5 mL/kg) M4N. Approximately 4 mL of blood was collected from the jugular vein at each sampling time point of 0.5, 1, 4, 8, and 12 hours after dosing on Days 1, 7, and 14. Three dogs/sex/group were rotated in ascending order for each dose group. Plasma was isolated and analyzed for M4N by HPLC assay.

[6] = Stability of M4N ointment formulation; type: physicochemical; settings: 2% wt/wt ointment in white petrolatum, 5 mL containers
Source text: Two dosing schemes were used.

HSV-1 [7] = system: HSV-1
Method: The dorsal cutaneous guinea pig model system is a well-established model for HSV-1 infection.
In FIGS. 6A-6D, for topical treatment with M4N sections of shaved and depilated dorsal guinea pig skin were infected equally were infected with HSV-1.
McKrae strain). […] Treatments were administered twice daily and photogragphs were taken at day 6 post-infection. […] Regions 1 and 4 were infected with high levels of HSV-1 (1×10^8 pfu/mL), regions 2 and 5 were infected with moderate levels of HSV-1 (1×10^6 pfu/mL) and regions 3 and 6 were infected with low levels of HSV-1 (1×10^4 pfu/mL).

HSV-2 = experiment: Mouse vaginal model of HSV-2 infection; type: in vivo, CF-1 mice; settings: 20 mg/ml in Vaseline
Method: The efficacies of […] (FIG. 8A) and […] (FIG. 8A) against HSV-2 in a mouse vaginal model system have also been examined. […] At the end of three days, the vaginal lavages were collected from the washings of the vagina regions. The status of the vaginal HSV-2 infection and replication were examined by their cytopathic effects on cultured human foreskin fibroblast cells. Monitoring and scoring were carried out by three persons independently.

[8] = mouse, in vivo
[9] = system: acyclovir-resistant strains of HSV-1 (HSV-1^R); settings: Chen et al., FIG. 3; cited from earlier work
[10] = in vivo, 45 mg/kg; cited from earlier work
HIV-1 = experiment: microbe, parasite or virus in culture; settings: Human immunodeficiency virus 1, IIIB, COS, read-out: Inhibitory Concentration (IC50 or EC50)
[11] = Fourteen day rabbit intravaginal irritation study
[12] = Human safety, tolerability and pharmacokinetic study of M4N vaginal ointment
[13] = all samples, Days 1 and 7, LOQ 0.4000
[14] = rabbit vaginal irritation study
[15] = fourteen women, M4N ointment/placebo crossover

COc1ccc(C[C@@H](C)[C@@H](C)Cc2ccc(OC)c(OC)c2)cc1OC [M4N, tetra-O-methyl-nordihydroguaiaretic acid]
inhibition of ICP4 gene transcription (ICP4 gene of HSV): effectively inhibit ICP4 gene transcription | reduction of Sp1 regulated transcription of HPV E6/E7 [1]: dramatically reduces Sp1 regulated transcription of HPV E6/E7 | IC50 (HSV-1 [2]; Human alphaherpesvirus 1, HSV-1 passage 1): 11.7 µM | IC50 (HSV-1 [2]; Human alphaherpesvirus 1, HSV-1 passage 2): 4.4 µM | IC50 (HSV-1 [2]; Human alphaherpesvirus 1, HSV-1 passage 3): 8.24 µM | IC50 (HSV-1 [2]; Human alphaherpesvirus 1, HSV-1 passage 4): 5.97 µM | IC50 (HSV-1 [2]; Human alphaherpesvirus 1, HSV-1 passage 5): 6.48 µM | IC50 (HSV-1 [2]; Human alphaherpesvirus 1, HSV-1 passage 6): 6.98 µM | IC50 (HSV-1 [2]; Human alphaherpesvirus 1, HSV-1 passage 7): 6.98 µM | IC50 (HSV-1 [2]; Human alphaherpesvirus 1, HSV-1 passage 8): 9.91 µM | IC50 (HSV-1 [2]; Human alphaherpesvirus 1, HSV-1 passage 9): 8.82 µM | IC50 (HSV-1 [2]; Human alphaherpesvirus 1, HSV-1 passage 10): 4.77 µM | change in IC50 against HSV-1 (HSV-1 [2]; following ten passages of virus): no increase in the IC50 | IC50 (HPV 16): 30 µM | histopathology of injection sites compared to DMSO vehicle sites ([3]; rabbit, in vivo, sc): slight increase in the intensity of reactions | effect on body weight or mortality ([3]; single s.c. injection, any dose group): No treatment-related effect | AUClast, females relative to males ([4]; Group 10, Day 14): ~4 times | plasma concentrations ([4]; Groups 8 and 9, Day 14, LOQ 0.4000): < 400 ng/mL | plasma concentrations [4, 13]: < 400 ng/mL | Tmax ([4]; female, females, Group 10, Day 14): 4 h | Cmax ([4]; female, females): 537 ng/mL | Tlast ([4]; females): 12 h | Tmax ([4]; male, males, Group 10, Day 14): 0.5 h | Cmax ([4]; male, males): 333 ng/mL | Tlast ([4]; males): 8 h | highest mean plasma concentration ([5]; Group 3 (50 mg/kg)): 1.004 µg/mL | AUClast, males relative to females ([5]; Group 3, Day 14): approximately 3 times | Tlast ([5]; Group 3 females): 4 h | highest mean plasma concentration ([5]; Group 4 (100 mg/kg)): 1.096 µg/mL | AUClast, males relative to females ([5]; Group 4, Day 14): ~2 times | plasma concentrations [5, 13]: < 400 ng/mL | concentration at 14 day ([5]; both sexes, beagle, dog, plasma, Group 2 (10 mg/kg), Day 14, read-out: plasma concentration, only sample greater than LOQ): 471 ng/mL | Tmax ([5]; both sexes, beagle, dog, plasma, Groups 3 and 4 except Group 3 males): 4 h | Cmax ([5]; both sexes, beagle, dog, plasma, all groups): 1000 ng/mL | median Tlast ([5]; except Group 3 females): 12 h | Tmax ([5]; male, beagle, dog, plasma, 50 mg/kg, Group 3 males): 8 h | time remained stable at room temperature [6]: 6 months | efficacy by time of first treatment after infection (HSV-1 [7]; 170 μM, first treated 10 min, 24 h, 48 h, 72 h after infection): better efficacy when treatment commenced shortly, within 24, after infection | inhibition of HSV-1 induced cutaneous lesion formation and viral shedding (HSV-1 [7]; topical application, guinea pig): effectively inhibited HSV-1 induced cutaneous lesion formation and viral shedding | toxicity or dermal irritation (HSV-1 [7]; topical, even at the highest soluble concentrations (150 mM)): no evidence of toxicity or dermal irritation | infection in the other 4 mice (HSV-2): very little infection | mice fully infected, out of 8 mice (HSV-2): 4 | score of the fully infected mice (HSV-2): 34 | toxicity [8]: no toxicity | efficacy against acyclovir-resistant strains of HSV-1 [9]: retains complete efficacy | tolerability on intravenous administration [10]: generally good tolerability | IC50 (HIV-1): 11 µM | early deaths ([11]; 2% w/w intravaginal, 1 mL once daily for 14 days): no early deaths | gross pathology (enlarged liver, irregularly shaped femur, rabbit 32092) ([11]; Group 2): incidental findings and not test article related | hematology vs controls ([11]; Study Day 15, Group 2 (2% w/w), attributed to individual animal variation): statistically significant lower absolute basophil count | clinical chemistry vs controls ([11]; Study Day 15, Group 2, attributed to individual animal variation): statistically significant lower ALT | cumulation after day 14 dosing ([11]; female rabbits, topical per vaginam): no resultant evidence of cumulation | blood concentrations seen ([11]; female rabbits, topical per vaginam, 4 hours post first dose and day 14): ≤ 10 ng/mL | start of absorption into the blood [11, 14]: 30 min | time of peak absorption into the blood [11, 14]: 4 h | effect on measured clinical pathology parameters ([11]; repeated intravaginal administration for 14 days): no apparent test article-related effect | tolerability ([12]; 90 mg (2% wt/wt) intravaginally once per day for 7 days, healthy women): well tolerated | detection in serum pharmacokinetic samples ([12]; days 1 and 7, 1, 2, 4, 6 hours after dosing, lower limit of detection 1 ng/mL): no detection of M4N | abdominal pain reported [12, 15]: 1 subjects | groin pain reported [12, 15]: 1 subjects | headaches reported [12, 15]: 3 subjects | tooth abscess reported [12, 15]: 1 subjects | upper respiratory tract infection reported [12, 15]: 2 subjects | application site irritation reported ([12]; might have been caused by the M4N ointment): 1 subjects
